Source: US7867980B2, “Lincosamide derivatives and antimicrobial agents comprising the same as active ingredient” (Meiji Seika Kaisha, Ltd., priority 2007, dated 2011)
In brackets after ≈: the same amount, converted by molar mass.

Assays:
Assay in all cases: Antimicrobial activity, minimum growth inhibitory concentration (MIC), agar dilution
Assay type in all cases: cell-based
S. pneumoniae 1700 = conditions: Sensitivity disk agar-N+5% horse blood, inoculum about 10^6 CFU/ml
Method: (§1) For representative compounds among lincomycin derivatives according to the present invention, the minimum growth inhibitory concentration (MIC, μg/ml) against various pneumococci was measured according to the method described in CHEMOTHERAPY, vol. […] Sensitivity disk agar-N+5% horse blood was used as the medium for the measurement. The amount of bacteria inoculated was about 10^6 CFU/ml.

S. pneumoniae 1820 = conditions: Sensitivity disk agar-N+5% horse blood, inoculum about 10^6 CFU/ml
Method: as §1

S. pneumoniae 1913 = conditions: Sensitivity disk agar-N+5% horse blood, inoculum about 10^6 CFU/ml
Method: as §1

S. pneumoniae 225 = conditions: Sensitivity disk agar-N+5% horse blood, inoculum about 10^6 CFU/ml
Method: as §1

S. pneumoniae DP1 TypeI = conditions: Sensitivity disk agar-N+5% horse blood, inoculum about 10^6 CFU/ml
Method: as §1

S. pneumoniae IP692 = conditions: Sensitivity disk agar-N+5% horse blood, inoculum about 10^6 CFU/ml
Method: as §1

S. pneumoniae PRC-206 = conditions: inoculum about 10^6 CFU/ml; for minimum growth inhibitory concentration (MIC): Sensitivity disk agar-N+5% horse blood
Method: as §1

S. pneumoniae PRC-53 = conditions: inoculum about 10^6 CFU/ml; for minimum growth inhibitory concentration (MIC): Sensitivity disk agar-N+5% horse blood
Method: as §1

S. pneumoniae TH-662 = conditions: inoculum about 10^6 CFU/ml; for minimum growth inhibitory concentration (MIC): Sensitivity disk agar-N+5% horse blood
Method: as §1

Compound	minimum growth inhibitory concentration (MIC) (S. pneumoniae 1700)	minimum growth inhibitory concentration (MIC) (S. pneumoniae 1820)	minimum growth inhibitory concentration (MIC) (S. pneumoniae 1913)	minimum growth inhibitory concentration (MIC) (S. pneumoniae 225)	minimum growth inhibitory concentration (MIC) (S. pneumoniae DP1 TypeI)	minimum growth inhibitory concentration (MIC) (S. pneumoniae IP692)	minimum growth inhibitory concentration (MIC) (S. pneumoniae PRC-206)	minimum growth inhibitory concentration (MIC) (S. pneumoniae PRC-53)	minimum growth inhibitory concentration (MIC) (S. pneumoniae TH-662)	MIC (S. pneumoniae 1700; Streptococcus pneumoniae)	MIC (S. pneumoniae 1820; Streptococcus pneumoniae)	MIC (S. pneumoniae 1913; Streptococcus pneumoniae)	MIC (S. pneumoniae 225; Streptococcus pneumoniae)	MIC (S. pneumoniae DP1 TypeI; Streptococcus pneumoniae, DP1TYPEI)	MIC (S. pneumoniae IP692; Streptococcus pneumoniae)	MIC (S. pneumoniae PRC-206; Streptococcus pneumoniae, PRC206, Sensitivity disk agar-N+5% horse blood)	MIC (S. pneumoniae PRC-53; Streptococcus pneumoniae, PRC53, Sensitivity disk agar-N+5% horse blood)	MIC (S. pneumoniae TH-662; Streptococcus pneumoniae, TH662, Sensitivity disk agar-N+5% horse blood)
CCC[C@@H]1C[C@@H](C(=O)N[C@@H]([C@H]2O[C@H](SC)[C@H](O)[C@@H](O)[C@H]2O)[C@H](C)Sc2ccc(-c3cncnc3)c(F)c2)N(C)C1 [Compound 3, 7-Deoxy-7-epi-7-(3-fluoro-4-(pyrimidin-5-yl)phenylthio)lincomycin]	2 mg/L	2 mg/L	≦0.008 μg/ml	8 mg/L	0.015 mg/L	0.03 mg/L	2 mg/L	≦0.008 μg/ml	0.25 mg/L	–	–	–	–	–	–	–	–	–
CCCC1CC(C(=O)NC(C(C)Sc2ccc(-c3nc(C(=O)N(C)C)cs3)cc2)C2OC(SC)C(O)C(O)C2O)N(C)C1 (stereo not drawn) [Compound 17, 7-Deoxy-7-(4-(4-(dimethylcarbamoyl)-thiazol-2-yl)phenylthio)-7-epilincomycin]	2 mg/L	4 mg/L	0.03 mg/L	32 mg/L	0.03 mg/L	0.03 mg/L	4 mg/L	0.015 mg/L	2 mg/L	–	–	–	–	–	–	–	–	–
CS[C@H]1O[C@H]([C@H](NC(=O)[C@@H]2C[C@H](CC3CC3)CCN2)[C@H](C)Sc2ccc(C3C=CCN(C)C3)nc2)[C@H](O)[C@H](O)[C@H]1O (stereo partly drawn) [Compound 93, Methyl 6-N-((2S,4R)-4-cyclopropylmethyl)-pipecoloyl-7-deoxy-7-epi-7-(6-(1-methyl-1,2,3,6-tetrahydropyridin-3-yl)pyridin-3-ylthio)-1-thio-α-lincosamide]	0.5 mg/L	1 mg/L	0.13 mg/L	1 mg/L	0.06 mg/L	0.13 mg/L	1 mg/L	0.06 mg/L	0.5 mg/L	–	–	–	–	–	–	–	–	–

Second part, the compound after the results:

minimum growth inhibitory concentration (MIC) (S. pneumoniae 1700)	minimum growth inhibitory concentration (MIC) (S. pneumoniae 1820)	minimum growth inhibitory concentration (MIC) (S. pneumoniae 1913)	minimum growth inhibitory concentration (MIC) (S. pneumoniae 225)	minimum growth inhibitory concentration (MIC) (S. pneumoniae DP1 TypeI)	minimum growth inhibitory concentration (MIC) (S. pneumoniae IP692)	minimum growth inhibitory concentration (MIC) (S. pneumoniae PRC-206)	minimum growth inhibitory concentration (MIC) (S. pneumoniae PRC-53)	minimum growth inhibitory concentration (MIC) (S. pneumoniae TH-662)	MIC (S. pneumoniae 1700; Streptococcus pneumoniae)	MIC (S. pneumoniae 1820; Streptococcus pneumoniae)	MIC (S. pneumoniae 1913; Streptococcus pneumoniae)	MIC (S. pneumoniae 225; Streptococcus pneumoniae)	MIC (S. pneumoniae DP1 TypeI; Streptococcus pneumoniae, DP1TYPEI)	MIC (S. pneumoniae IP692; Streptococcus pneumoniae)	MIC (S. pneumoniae PRC-206; Streptococcus pneumoniae, PRC206, Sensitivity disk agar-N+5% horse blood)	MIC (S. pneumoniae PRC-53; Streptococcus pneumoniae, PRC53, Sensitivity disk agar-N+5% horse blood)	MIC (S. pneumoniae TH-662; Streptococcus pneumoniae, TH662, Sensitivity disk agar-N+5% horse blood)	Compound
0.13 mg/L	0.25 mg/L	0.015 mg/L	1 mg/L	≦0.008 μg/ml	≦0.008 μg/ml	0.25 mg/L	≦0.008 μg/ml	0.13 mg/L	–	–	–	–	–	–	–	–	–	CCC[C@@H]1CCN[C@H](C(=O)N[C@@H]([C@H]2O[C@H](SC)[C@H](O)[C@@H](O)[C@H]2O)[C@H](C)Sc2ccc(-c3cncnc3)cc2)C1 [Compound 59, Methyl 7-deoxy-7-epi-6-N-((2S,4R)-4-propyl)pipecoloyl-7-(4-(pyrimidin-5-yl)phenylthio)-1-thio-α-lincosamide]
–	–	–	–	–	–	–	–	–	2 mg/L (≈ 3.39 µM)	2 mg/L (≈ 3.39 µM)	0.015 mg/L (≈ 0.0254 µM)	4 mg/L (≈ 6.77 µM)	0.015 mg/L (≈ 0.0254 µM)	0.015 mg/L (≈ 0.0254 µM)	2 mg/L (≈ 3.39 µM)	≤ 0.008 mg/L	0.5 mg/L (≈ 0.846 µM)	CCC[C@@H]1CCN(C)[C@H](C(=O)N[C@@H](C2OC(SC)C(O)C(O)C2O)[C@H](C)Sc2ccc(-c3cncnc3)cc2)C1 (stereo partly drawn) [Compound 65]
